This is an account of results in US8957064B2, “Fused pyrimidines” (Bayer Intellectual Property GmbH, priority 2009, dated 2015).

The structures appear in SMILES notation. Some results are limits rather than exact numbers.

Experiment [1] addresses His-tagged human recombinant kinase full-length Akt2 activated by PDK1 (Homo sapiens (Human), UniProt P31751). Nature of the experiment: Akt2 kinase assay (Akt2 TR-FRET assay, Biological Assay 2.0). Format: biochemical. Conditions: 10 μM ATP, 1 μM biotinylated peptide substrate, 60 min at 22° C. An excerpt: Biological Assay 2.0: Akt2 Kinase Assay
Akt2 inhibitory activity of compounds of the present invention was quantified employing the Akt2 TR-FRET assay as described in the following paragraphs.
His-tagged human recombinant kinase full-length Akt2 expressed in insect cells and activated by PDK1 was purchased form Invitrogen (part number PV 3975). As substrate for the kinase reaction the biotinylated peptide biotin-Ahx-KKLNRTLSFAEPG (C-terminus in amide form) was used which can be purchased e.g. from the company Biosynthan GmbH (Berlin-Buch, Germany).
(§1) For the assay 50 nl of a 100 fold concentrated solution of the test compound in DMSO was pipetted into a black low volume 384 well microtiter plate (Greiner Bio-One, Frickenhausen, Germany), 2 μl of a solution of Akt2 in assay buffer [50 mM TRIS/HCl pH 7.5, 5 mM MgCl2, 1 mM dithiothreitol, 0.02% (v/v) Triton X-100 (Sigma)] were added and the mixture was incubated for 15 min at 22° C. to allow prebinding of the test compounds to the enzyme before the start of the kinase reaction. Then the kinase reaction was started by the addition of 3 μl of a solution of adenosine-tri-phosphate (ATP, 16.7 μM=>final conc. in the 5 μl assay volume is 10 μM) and substrate (1.67 μM=>final conc. in the 5 μl assay volume is 1 μM) in assay buffer and the resulting mixture was incubated for a reaction time of 60 min at 22° C. The concentration of Akt2 in the assay was adjusted depending of the activity of the enzyme lot and was chosen appropriate to have the assay in the linear range, typical enzyme concentrations were in the range of about 0.2 ng/μl (final conc. in the 5 μl assay volume).
(§2) The reaction was stopped by the addition of 5 μl of a solution of HTRF detection reagents (200 nM streptavidine-XL665 [Cisbio] and 1.5 nM anti-phosho-Serine antibody [Millipore, cat. #35-001] and 0.75 nM LANCE Eu-W 1024 labeled anti-mouse IgG antibody [Perkin Elmer]) in an aqueous EDTA-solution (100 mM EDTA, 0.1% (w/v) bovine serum albumin in 50 mM HEPES/NaOH pH 7.5).
(§3) The resulting mixture was incubated 1 h at 22° C. to allow the binding of the biotinylated phosphorylated peptide to the streptavidine-XL665 and the antibodies. Subsequently the amount of phosphorylated substrate was evaluated by measurement of the resonance energy transfer from the anti-mouse-IgG-Eu-Chelate to the streptavidine-XL665. Therefore, the fluorescence emissions at 620 nm and 665 nm after excitation at 350 nm was measured in a TR-FRET reader, e.g. a Rubystar (BMG Labtechnologies, Offenburg, Germany) or a Viewlux (Perkin-Elmer). The ratio of the emissions at 665 nm and at […] was taken as the measure for the amount of phosphorylated substrate. The data were normalised (enzyme reaction without inhibitor=0% inhibition, all other assay components but no enzyme=100% inhibition).

Experiment [2] deals with His-tagged human recombinant kinase full-length Akt1 (Homo sapiens (Human), UniProt P31749). Nature of the experiment: Akt1 kinase assay (Akt1 TR-FRET assay, Biological Assay 1.0). The experiment is classed as biochemical. The following applies: 10 μM ATP, 1 μM biotinylated peptide substrate, 60 min at 22° C.
His-tagged human recombinant kinase full-length Akt1, sequence (P31749 whole entry): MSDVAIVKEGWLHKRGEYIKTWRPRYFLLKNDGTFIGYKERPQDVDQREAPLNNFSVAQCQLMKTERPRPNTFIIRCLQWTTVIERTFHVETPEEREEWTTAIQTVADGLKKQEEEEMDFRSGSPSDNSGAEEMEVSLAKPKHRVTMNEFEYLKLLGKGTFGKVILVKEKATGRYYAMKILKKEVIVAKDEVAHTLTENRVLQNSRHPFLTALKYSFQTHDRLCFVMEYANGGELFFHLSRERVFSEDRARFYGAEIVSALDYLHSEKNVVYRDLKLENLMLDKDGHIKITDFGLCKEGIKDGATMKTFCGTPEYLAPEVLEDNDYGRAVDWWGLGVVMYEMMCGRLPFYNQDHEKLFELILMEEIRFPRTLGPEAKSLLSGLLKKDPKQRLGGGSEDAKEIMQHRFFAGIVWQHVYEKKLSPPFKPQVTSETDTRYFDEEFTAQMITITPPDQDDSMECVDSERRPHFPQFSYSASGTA
Source text: Biological Assay 1.0: Akt1 Kinase Assay
Akt1 inhibitory activity of compounds of the present invention may be quantified employing the Akt1 TR-FRET assay as described in the following paragraphs. His-tagged human recombinant kinase full-length Akt1 expressed in insect cells was purchased form Invitrogen (part number PV 3599). As substrate for the kinase reaction the biotinylated peptide biotin-Ahx-KKLNRTLSFAEPG (C-terminus in amide form) was used which can be purchased e.g. from the company Biosynthan GmbH (Berlin-Buch, Germany).
as §1, with “Akt1” for “Akt2”, “0.05” for “0.2”
as §2
as §3, with “HTRF” for “TR-FRET”

His-tagged human recombinant kinase full-length Akt2 activated by PDK1, sequence (P31751 whole entry): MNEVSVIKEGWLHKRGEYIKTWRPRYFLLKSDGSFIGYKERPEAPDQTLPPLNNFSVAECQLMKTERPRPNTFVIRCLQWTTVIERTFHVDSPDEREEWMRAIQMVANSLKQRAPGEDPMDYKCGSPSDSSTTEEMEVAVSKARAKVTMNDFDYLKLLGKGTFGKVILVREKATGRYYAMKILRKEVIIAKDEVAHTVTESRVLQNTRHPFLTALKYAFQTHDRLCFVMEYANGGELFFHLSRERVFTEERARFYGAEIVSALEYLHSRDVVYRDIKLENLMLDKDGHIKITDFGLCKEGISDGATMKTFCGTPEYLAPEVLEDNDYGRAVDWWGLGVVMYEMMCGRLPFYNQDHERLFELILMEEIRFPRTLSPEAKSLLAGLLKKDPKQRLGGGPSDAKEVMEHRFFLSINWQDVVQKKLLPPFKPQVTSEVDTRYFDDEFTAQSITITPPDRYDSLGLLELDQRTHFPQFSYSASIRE

`Cc1nc2nc(-c3ccc(CN4CC(c5nnc(-c6ccccn6)[nH]5)C4)cc3)c(-c3ccccc3)cn2n1` [Example 2.0, 2-methyl-6-phenyl-5-(4-{[3-(5-pyridin-2-yl-1,2,4-triazol-3-yl)azetidin-1-yl]methyl}phenyl)[1,2,4]triazolo[1,5-a]pyrimidine]: the IC50 is 65 nM in experiment [1] and 23 nM in experiment [2].
For `c1ccc(-c2cn3ccnc3nc2-c2ccc(CN3CC(c4nnc(-c5ccccn5)[nH]4)C3)cc2)cc1` [Example 1.0, 6-phenyl-7-(4-{[3-(5-pyridin-2-yl-1,2,4-triazol-3-yl)azetidin-1-yl]methyl}phenyl)imidazo[1,2-a]pyrimidine], the results for the IC50 in experiment [1] and in experiment [2] were below 500 nM and below 50 nM, respectively.
As to `Cc1nc2nc(-c3ccc(CN4CC(c5n[nH]c(-c6ccccn6)n5)C4)cc3)c(-c3ccccc3)cn2c1Br` [Example 26.0, 3-bromo-2-methyl-6-phenyl-7-{4-[3-(5-pyridine-2-yl-1H-[1,2,4]triazole-3-yl]-azetidine-1-ylmethyl]-phenyl}-imidazo[1,2-a]pyrimidine], the IC50 in experiment [1] and in experiment [2] was 4 nM throughout.
With `Cc1cccc(-c2nc(C3CCN(Cc4ccc(-c5nc6nc(C)nn6cc5-c5ccc(F)cc5F)cc4)CC3)n[nH]2)n1` [Example 50.1, 6-(2,4-difluorophenyl)-2-methyl-5-(4-{4-[5-(6-methylpyridine-2-yl)-1H-[1,2,4]triazole-3-yl]-piperidine-1-ylmethyl}-phenyl)-[1,2,4]triazolo[1,5-a]pyrimidine], the IC50 in experiment [1] turned out to be 108 nM; in experiment [2] it was 62 nM.
With `c1ccc(-c2cn3nccc3nc2-c2ccc(CN3CCC(c4nc5cccnc5[nH]4)CC3)cc2)cc1` [Example 16.0, 2-{1-[4-(6-phenyl-pyrazolo[1,5-a]pyrimidin-5-yl)-benzyl]-piperidin-4-yl}-3H-imidazo[4,5-b]pyridine], the half-maximal inhibitory concentration (IC50) in experiment [1] came out at 1080 nM; in experiment [2], 42 nM.
The like results for `Fc1ccc(-c2cn3c(Cl)cnc3nc2-c2ccc(CN3CCC(c4n[nH]c(-c5ccccn5)n4)CC3)cc2)cc1` [Example 53.1, 3-chloro-6-(4-fluorophenyl)-7-{4-[4-(5-pyridine-2-yl-1H-[1,2,4]triazole-3-yl)-piperidine-1-ylmethyl]-phenyl}-imidazo[1,2-a]pyrimidine] were, in that order, 33 nM and 25 nM.
As to `CC(C)Nc1nc2nc(-c3ccc(CN4CC(c5n[nH]c(-c6ccccn6)n5)C4)cc3)c(-c3ccccc3)cn2n1` [Example 43.1, isopropyl-(6-phenyl-5-{4-[3-(5-pyridin-2-yl-1H-[1,2,4]triazol-3-yl)-azetidin-1-ylmethyl]-phenyl}-[1,2,4]triazolo[1,5-a]pyrimidin-2-yl)-amine], the figures for the IC50 in experiment [1] and in experiment [2] were 11 nM and 22 nM, respectively.
On the same counts, the results for `CSc1nc2nc(-c3ccc(CN4CCC(c5n[nH]c(-c6ncccn6)n5)CC4)cc3)c(-c3ccccc3)cn2n1` [Example 72.2, 2-methylsulfanyl-6-phenyl-5-{4-[4-(5-pyrimidin-2-yl-1H-[1,2,4]triazol-3-yl)-piperidin-1-ylmethyl]-phenyl}-[1,2,4]triazolo[1,5-a]pyrimidine] are 222 nM and 77 nM.
Consider `COC(=O)c1cnn2cc(-c3c(F)cccc3F)c(-c3ccc(CN4CC(c5n[nH]c(-c6cccc(C)n6)n5)C4)cc3)nc12` [Example 27.0, 6-(2,6-difluorophenyl)-5-(4-{3-[5-(6-methylpyridine-2-yl)-1H-[1,2,4]triazole-3-yl]-azetidine-1-ylmethyl}-phenyl)-pyrazolo[1,5-a]pyrimidine-3-carboxylic acid methyl ester], for which the IC50 in experiment [1] was found to be 115 nM; in experiment [2], 12 nM.
For `COc1nn2cc(-c3c(F)cccc3F)c(-c3ccc(CN4CC(c5n[nH]c(-c6ccccn6)n5)C4)cc3)nc2c1CO` [Example 63.0, (6-(2,6-difluorophenyl)-2-methoxy-5-{4-[3-[5-pyridine-2-yl-1H-[1,2,4]triazole-3-yl)-azetidine-1-ylmethyl]-phenyl}-pyrazolo[1,5-a]pyrimidin-3-yl)-methanol], the IC50 stood at 118 nM in experiment [1] and 14 nM in experiment [2].
On the same counts, the results for `COC(=O)c1cn2cc(-c3ccccc3)c(-c3ccc(CN4CC(c5n[nH]c(-c6cccc(C)n6)n5)C4)cc3)nc2n1` [Example 74.0, 7-(4-{3-[5-(6-methylpyridine-2-yl)-1H-[1,2,4]triazole-3-yl]-azetidine-1-ylmethyl}-phenyl)-6-phenyl-imidazo[1,2-a]pyrimidine-2-carboxylic acid methyl ester] are 14 nM and 12 nM.
On the same counts, the results for `Cc1nc2nc(-c3ccc(CN4CCC(c5cnc6ccccc6n5)CC4)cc3)c(-c3ccccc3)cn2n1` [Example 24.1, 2-{1-[4-(2-methyl-6-phenyl-[1,2,4]triazolo[1,5-a]pyrimidin-5-yl)-benzyl]-piperidin-4-yl}-quinoxaline] are 9880 nM and 4370 nM.
The like results for `COc1nn2cc(-c3c(F)cccc3F)c(-c3ccc(CN4CC(c5n[nH]c(-c6cccc(C)n6)n5)C4)cc3)nc2c1CO` [Example 63.1] were, in that order, 34 nM and 8 nM.
With `Cc1cccc(-c2nc(C3CN(Cc4ccc(-c5nc6nc(C)c(Br)n6cc5-c5ccccc5)cc4)C3)n[nH]2)n1` [Example 57.0, 3-bromo-2-methyl-7-{4-{3-[5-(6-methylpyridine-2-yl)-1H-[1,2,4]triazole-3-yl)-azetidine-1-ylmethyl]-phenyl}-6-phenyl-imidazo[1,2-a]pyrimidine], the IC50 in experiment [1] came out at 3 nM; in experiment [2], 6 nM.
Turning to `Cc1cccc(-c2nc(C3CCN(Cc4ccc(-c5nc6nc(C)nn6cc5-c5cccc(F)c5)cc4)CC3)n[nH]2)n1` [Example 49.0, 6-(3-fluorophenyl)-2-methyl-5-(4-{4-[5-(6-methylpyridine-2-yl)-1H-[1,2,4]triazole-3-yl]-piperidine-1-ylmethyl}-phenyl)-[1,2,4]triazolo[1,5-a]pyrimidine], the IC50 in experiment [1] was 37 nM; in experiment [2] it was 13 nM.
For the compound `Cc1cccc(-c2nc(C3CN(Cc4ccc(-c5nc6nc(C(C)C)nn6cc5-c5ccccc5)cc4)C3)n[nH]2)n1` [Example 31.0, 2-isopropyl-5-(4-{3-[5-(6-methyl-pyridine-2-yl)-1H-[1,2,4]triazolo-3-yl]-azetidine-1-ylmethyl}-phenyl)-6-phenyl-[1,2,4]triazolo[1,5-a]pyrimidine], the IC50 in experiment [1] came out at 14 nM; in experiment [2], 70 nM.
